US20220175761A1, “BI-LIGAND DRUG CONJUGATE AND USE THEREOF” (COHERENT BIOPHARMA (SUZHOU), LIMITED, priority 2019, published 2022)
pIC50: −log10 of the molar value. Values joined by “and” are separate entries in the source; they are usually repeats but may differ in a detail not shown here. Equal values may be shown once. Square brackets hold non-standard residues; d marks the D form. Peptide text beside a SMILES is read from it. * marks the point of attachment. Dolaproine = CO[C@@H]([C@@H]1CCCN1)[C@@H](C)C(=O)O; Dil = CC[C@H](C)[C@H](NC)[C@@H](CC(=O)O)OC; X1 = C[C@@H](N*)[C@@H](O)c1ccccc1; NMeV = CN[C@H](C(=O)O)C(C)C

Columns and labels:
[1] = test system: LNCaP (human prostate cancer cells); assay: Inhibition of cell line proliferation, CCK8; assay type: cell-based; conditions: LNCaP; for pIC50: 68-72 hours, CCK8
[2] = test system: PANC-1 (human pancreatic cancer cells); assay: Inhibition of cell line proliferation, CCK8; assay type: cell-based; conditions: for pIC50: PANC-1, 68-72 hours, CCK8
Description: (§1) Experimental operations: PANC-1 and CFPAC-1 cells were prepared in advance, counted, and plated in 96-well cell culture plates at a cell density of 4×10^4 cells/ml (100 μl/well); negative control and blank control wells were set on each plate. After adherent cell culture overnight, the diluted samples to be tested were added at 50 μl/well. The plates were placed in an incubator at 37° C., 5% CO2 and cultured for 68-72 hours. To each well, 15 μl (10% of the liquid volume in a well) of a color developing solution from CCK8 was added; and the plates were incubated at 37° C. for 45-70 minutes and each plate was read at 450 nm on a microplate reader. The data was edited using SoftMax Pro and a 4-P fitting curve was plotted.
(§2) Experimental operations: LNCaP, SK-BR-3, NCI-H226, CFPAC-1 and PANC-1 cells were prepared in advance and counted; with a culture medium (IMDM+10% FBS+1× L-Glutamine+1×P/S), the cells LNCaP, SK-BR-3 and CFPAC-1 were diluted to 4×10^4 cells/ml, NCI-H226 was diluted to 2.0×10^4 cells/ml and PANC-1 was diluted to 3.0×10^4 cells/ml; the diluted cell solution was plated in 96-well plates at 100 μl/well; and negative control and blank control wells were set on each plate. After adherent cell culture overnight, the diluted samples to be tested were added at 50 μl/well. The plates were placed in an incubator at 37° C., 5% CO2 and cultured for 68-72 hours. To each well, 15 μl (10% of the liquid volume in a well) of a color developing solution from CCK8 was added; and the plates were incubated at 37° C. for 45-70 minutes and each plate was read at 450 nm on a microplate reader. The data was edited using SoftMax Pro and a 4-P fitting curve was plotted.
as §2, with “Operations:” for “operations:”, “MDA-MB-468,” for “SK-BR-3, NCI-H226,”, “MDA-MB-468” for “SK-BR-3”, “cells/ml,” for “cells/ml, NCI-H226 was diluted to 2.0×10^4 cells/ml”

[3] = test system: 22RV1 (human prostate cancer cells); assay: Inhibition of cell line proliferation, CCK8; assay type: cell-based; conditions: for pIC50: 22RV1, 68-72 hours, CCK8
Excerpt: Since different cells have different sensitivity to a cell proliferation inhibitory toxicity of the payload in a ligand conjugate, the quantitative analysis may be interfered occasionally. A series of cell lines with known expression levels of receptors of different ligands were selected and tested for the response to inhibitory effects of the cell proliferation of a ligand conjugate and a single payload. The IC50 ratio of a single payload to that of a ligand conjugate in same cell line were taken to remove such interference.
as §1, with “LNCaP” for “PANC-1”, “22RV1” for “CFPAC-1”, “cells/ml and 2.0×10^4 cells/ml, respectively” for “cells/ml”

[4] = test system: CFPAC-1 (human pancreatic cancer cells); assay: Inhibition of cell line proliferation, CCK8; assay type: cell-based; conditions: for pIC50: CFPAC-1, 68-72 hours, CCK8
[5] = Body weight and clinical observation in the LU2505 study; assay type: in vivo, BALB/c nude mice; conditions: 0.375 mg/kg on day 1, 8, 15, D22
Excerpt: The active substance of test sample CBP-1018 is CB-20BK, which is obtained by mixing CB-20BK with auxiliary materials and then lyophilizing same.

Compound	IC50 ratio (MMAE/conjugate) [1]	pIC50 [1]	IC50 (MMAE)/IC50 (conjugate) ([2]; PANC-1)	pIC50 [2]	IC50 ratio (MMAE/conjugate) ([3]; 22RV1)	pIC50 [3]	IC50 (MMAE)/IC50 (conjugate) ([4]; CFPAC-1)	pIC50 [4]	Weight [5] [g]
CC[C@H](C)[C@@H]([C@@H](CC(=O)N1CCC[C@H]1[C@H](OC)[C@@H](C)C(=O)N[C@H](C)[C@@H](O)c1ccccc1)OC)N(C)C(=O)[C@@H](NC(=O)[C@H](C(C)C)N(C)C(=O)OCc1ccc(NC(=O)C(CCCNC(N)=O)NC(=O)[C@@H](NC(=O)CCCCCN2C(=O)CC(SC[C@H](NC(=O)[C@H](CCCCN)NC(=O)[C@H](CC(=O)O)NC(=O)[C@H](CC(=O)O)NC(=O)Cc3ccc(CNC(=O)NCCCC[C@H](NC(=O)N[C@@H](CCC(=O)O)C(=O)O)C(=O)O)cc3)C(=O)N[C@@H](CCCCNC(=O)CC[C@H](NC(=O)c3ccc(NCc4cnc5[nH]c(N)nc(=O)c5n4)cc3)C(=O)O)C(N)=O)C2=O)C(C)C)cc1)C(C)C (stereo partly shown) [CB-20BK]	0.0267	7.02	0.020	6.90	0.013	6.30	0.027	6.25	
CC[C@H](C)[C@@H]([C@@H](CC(=O)N1CCC[C@H]1[C@H](OC)[C@@H](C)C(=O)N[C@H](C)[C@@H](O)c1ccccc1)OC)N(C)C(=O)[C@@H](NC(=O)[C@@H](NC)C(C)C)C(C)C [MMAE, monomethyl auristatin E] (H-[NMeV]V[Dil][Dolaproine]-X1)		8.59 and 8.52		8.70		8.19		7.82	23.5
